# Patent US5523460A, “4-fluorobiphenyl derivatives” (Fujirebio Inc., priority 1993, dated 1996)
# Where two headings read alike, the source gives them in different places.
# How the values were obtained:
# [1] = biological target: T1, HMG-CoA Reductase (Rattus norvegicus, UniProt P51639); assay: biochemical; conditions: method of J. Biol. Chem. Vol. 234, page 2835 (1959); read-out: HMG-CoA Reductase Inhibitory Activity IC50
# T1 sequence (P51639 1-887): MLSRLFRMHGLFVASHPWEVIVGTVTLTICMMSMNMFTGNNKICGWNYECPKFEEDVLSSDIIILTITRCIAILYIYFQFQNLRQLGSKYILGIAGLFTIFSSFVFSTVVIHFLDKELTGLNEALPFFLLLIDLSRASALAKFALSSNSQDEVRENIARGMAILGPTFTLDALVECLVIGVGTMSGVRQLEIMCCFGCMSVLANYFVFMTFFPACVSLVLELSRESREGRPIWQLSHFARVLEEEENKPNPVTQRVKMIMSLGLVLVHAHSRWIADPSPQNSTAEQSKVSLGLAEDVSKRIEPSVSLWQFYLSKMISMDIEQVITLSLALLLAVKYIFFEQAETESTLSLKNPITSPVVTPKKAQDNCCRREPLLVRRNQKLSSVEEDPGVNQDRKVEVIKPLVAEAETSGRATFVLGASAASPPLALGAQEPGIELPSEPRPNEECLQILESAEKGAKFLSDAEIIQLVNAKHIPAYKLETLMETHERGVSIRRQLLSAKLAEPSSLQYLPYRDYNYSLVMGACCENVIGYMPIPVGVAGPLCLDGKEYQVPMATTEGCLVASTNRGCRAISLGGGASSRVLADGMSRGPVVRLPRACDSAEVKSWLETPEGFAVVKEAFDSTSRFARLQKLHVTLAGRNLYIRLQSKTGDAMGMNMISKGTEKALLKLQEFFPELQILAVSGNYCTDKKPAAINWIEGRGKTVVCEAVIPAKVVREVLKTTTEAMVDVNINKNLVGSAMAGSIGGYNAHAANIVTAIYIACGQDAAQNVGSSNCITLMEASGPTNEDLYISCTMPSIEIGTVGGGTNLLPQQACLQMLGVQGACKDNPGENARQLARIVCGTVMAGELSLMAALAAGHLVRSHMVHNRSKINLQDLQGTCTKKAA
# Experimental: Test 1Determination of Inhibitory Activity on HMG-CoA Reductase
# The inhibitory effect on HMG-CoA Reductase of each of representative examples of the 4-fluorobiphenyl derivatives prepared in the above-discussed examples was determined in accordance with the method described in Journal of Biological Chemistry (J. Biol. Chem.) Vol. 234, page 2835 (1959), and IC50 values were obtained.
# [2] = test system: biosynthesis of sterol; assay: Determination of Inhibition of Sterol Synthesis (liver, after oral administration to rats); format: in vivo, SD rats; conditions: Rattus norvegicus, 2 h, read-out: Inhibition of Sterol Synthesis
# Experimental: Test 2 Determination of Inhibition of Sterol Synthesis
# Representative compounds (0.3 mg/5ml/kg) suspended in a 5% arabic gum solution were orally given to SD rats weighing 150 to 200 g. One hour later, ^14 C-acetic acid (100 μCi/kg) was intraperitoneally injected, and furthermore one hour later, liver was removed to determine the inhibitory activity of each of the compounds on the biosynthesis of sterol in accordance with the method described in European Journal of Biochemistry (Eur. J. Biochem.) Vol.77, page 31 (1977).
Structure (SMILES),IC50 [1],inhibition in vivo at 0.3 mg/kg ([2]; po),"inhibition in vivo at 0.3 mg/kg ([2]; 0.3 mg/5ml/kg oral in 5% arabic gum, SD rats, 14C-acetic acid (100 μCi/kg) i.p. 1 h later, liver removed 1 h after that)"
COc1cc(C(C)C)c(/C=C/C(O)CC(O)CC(=O)O)c(-c2ccc(F)cc2)c1OC (centres unmarked),5.43 nM,71%,
COCCOc1c(OC)cc(C(C)C)c(/C=C/C(O)CC(O)CC(=O)O)c1-c1ccc(F)cc1 (centres unmarked),25.6 nM,60%,
COCCOCCOc1c(OC)cc(C(C)C)c(/C=C/C(O)CC(O)CC(=O)O)c1-c1ccc(F)cc1 (centres unmarked),9.43 nM,69%,
COCCOc1cc(C(C)C)c(/C=C/C(O)CC(O)CC(=O)O)c(-c2ccc(F)cc2)c1OC (centres unmarked),16.1 nM,71%,
COc1c(OCCO)cc(C(C)C)c(/C=C/C(O)CC(O)CC(=O)O)c1-c1ccc(F)cc1 (centres unmarked),20.4 nM,61%,
COCCOCCOc1cc(C(C)C)c(/C=C/C(O)CC(O)CC(=O)O)c(-c2ccc(F)cc2)c1OC (centres unmarked),26.4 nM,62%,
COc1c(C)cc(C(C)C)c(/C=C/C(O)CC(O)CC(=O)O)c1-c1ccc(F)cc1 (centres unmarked),16.6 nM,65%,
COc1c(Cl)cc(C(C)C)c(/C=C/C(O)CC(O)CC(=O)O)c1-c1ccc(F)cc1 (centres unmarked),18.7 nM,71%,
"CCC(C)(C)C(=O)O[C@H]1C[C@@H](C)C=C2C=C[C@H](C)[C@H](CC[C@@H]3C[C@@H](O)CC(=O)O3)[C@H]21 [Simvastatin, reference compound]",,,24%
